In patent publication US7754718B2 (priority 2004, dated 2010):

Tests used:
[1] = system: HBV; assay: In vitro antiviral assay for HBV (Table 1); format: cell-based, Hepatitis B virus; conditions: Hepatitis B virus, read-out: Antiviral Activities (EC50, μM) HBV
Method: (§1) The antiviral assays for HBV, (Doong et al., 1991, Proc. Natl. Acad. Sci. U.S.A. 88:8495-8499) HSV-1, (Bastow et al., 1983, Antimicrob. Agents Chemother. 23: 914-917) HSV-2, (Bastow et al., 1983, Antimicrob. Agents Chemother. 23:914-917) EBV, (Yao et al., 1993, Antimicrob. Agents Chemother. 37:1420-1425), CMV (Andreoni et al., 2002, J. Med. Virol. 67:33-40) and HIV (Mellors et al., 1992, Mol. Pharmacol. 41: 446-451) were performed according to the previously reported procedures. Anti-HCV activities were tested in Huh-Luc/neo cell line. Cells were seeded into 48-well plates and grown until confluent. Different concentrations of drugs were added into media (DMEM, 10% dFBS) and incubated for 3 days. At the end of 3-day treatment, medium were removed and 50 μl of Passive lysis buffer (Promega) were added. Cell lysate was shaken at room temperature for 15 min. 30 μl/well of cell lysate was transferred to another 96-well plate, 100 μl/well of luciferase activity assay substrate was added into plate and read by a luminometer (Amersham) immediately.

[2] = system: HCV; assay: Anti-HCV activity in Huh-Luc/neo cell line, luciferase activity after 3-day treatment; format: cell-based, Hepatitis C virus; conditions: Hepatitis C virus, 72 h, Huh-Luc/neo cells, 3 days; for EC50: given as a bound only, read-out: Antiviral Activities (EC50, μM) HCV
Method: as §1

[3] = system: HSV-1; assay: In vitro antiviral assay for HSV-1; format: cell-based, Herpes Simplex Virus 1; conditions: for EC50: Human alphaherpesvirus 1, read-out: Antiviral Activities (EC50, μM) HSV-1
Method: as §1

[4] = system: HSV-2; assay: In vitro antiviral assay for HSV-2; format: cell-based, Herpes Simplex Virus 2; conditions: for EC50: Human alphaherpesvirus 2, read-out: Antiviral Activities (EC50, μM) HSV-2
Method: as §1

[5] = system: EBV; assay: In vitro antiviral assay for EBV; format: cell-based, Epstein-Barr Virus; conditions: human gammaherpesvirus 4, read-out: Antiviral Activities (EC50, μM) EBV
Method: as §1

[6] = system: CMV; assay: In vitro antiviral assay for CMV; format: cell-based, cytomegalovirus; conditions: Human betaherpesvirus 5, read-out: Antiviral Activities (EC50, μM) CMV
Method: as §1

[7] = system: HIV; assay: In vitro antiviral assay for HIV; format: cell-based, human immunodeficiency virus; conditions: Human immunodeficiency virus 1, read-out: Antiviral Activities (EC50, μM) HIV, in vitro; (T) after a value means toxic
Method: as §1

[8] = Cell cytotoxicity assay on MT-2 cells; format: cell-based; conditions: human, read-out: Cytotoxity (ID50, μM) MT-2
Method: (§2) Cytotoxicities of test compounds on MT-2 (Mellors et al., 1992 Mol. Pharmacol. 41:446-451) and CEM (Grove et al., 1995, Cancer Res. 55:3008-3011) cells were determined according to the previously reported procedures. Hepg2 cells were seeded at a density of 10^4 cells/ml/well in 24-well plates and cultured in MEME supplemented with 10% FBS at 37° C. and 5% CO2. Each test compound at different concentrations was added on the second day of the culture and the cells were incubated for another 3 days. At the end of the incubation period, the medium was removed and 0.5 ml of 0.5% methylene blue in 50% ethanol (v/v) was added to each well and set at room temperature for 30-60 minutes. The methylene blue was removed; the plates were washed with water and allowed to air dry. Once dry, 1% sarcosyl was added to dissolve the stained cell layer. The absorbance at 595 nm was measured with a microplate reader (Molecular Devices Corp. Sunnyvale, Calif.). The cytotoxicity to CEM cell was calculated as described previously (Grove et al., 1995, Cancer Res. 55 (14): 3008-3011).

[9] = Cell cytotoxicity assay on CEM cells; format: cell-based; conditions: human, read-out: Cytotoxity (ID50, μM) CEM
Method: as §2

[10] = read-out: HCV percent of inhibition

## O=C1OC(=O)c2c1cc1ccc3c(c1c2-c1ccc2c(c1)OCO2)OCO3 [Compound 1, 10-Benzo[1,3]dioxol-5-yl-furo[3′,4′:6,7]naphtho[1,2-d][1,3]dioxole-7,9-dione]
[1]
  EC50: > 10 µM
[2]
  EC50: > 10 µM
[3]
  EC50: > 50 µM
[4]
  EC50: > 50 µM
[5]
  EC50: > 20 µM
[6]
  EC50: 17.6 µM
[7]
  EC50: > 100 µM
[8]
  IC50: > 100 µM
[9]
  IC50: > 50 µM

## O=C(NCCCOCc1ccccc1)c1cc2ccc3c(c2c(-c2ccc4c(c2)OCO4)c1COCc1ccccc1)OCO3 [Compound 8, 9-Benzo[1,3]dioxol-5-yl-8-benzyloxymethyl-naphtho[1,2-d][1,3]dioxole-7-carboxylic acid (3-benzyloxy-propyl)-amide]
[1]
  EC50: > 10 µM
[2]
  EC50: > 10 µM
[3]
  EC50: > 25 µM
[4]
  EC50: > 25 µM
[5]
  EC50: > 15 µM
[6]
  EC50: 3.7 µM
[7]
  EC50: > 100 µM
[8]
  IC50: > 100 µM
[9]
  IC50: 10 µM

## O=C([O-])c1cc2ccc3c(c2c(-c2ccc4c(c2)OCO4)c1CO)OCO3.[Na+] [Compound 3, 9-Benzo[1,3]dioxol-5-yl-8-hydroxymethyl-naphtho[1,2-d][1,3]dioxole-7-carboxylic acid monosodium salt]
[1]
  EC50: 3.4 µM
[2]; [10]
  inhibition at 10 µM: 25%
[3]
  EC50: 9 µM
[4]
  EC50: 25 µM
[5]
  EC50: > 20 µM
[6]
  EC50: 2.5 µM
[7]
  EC50: > 10 µM
[8]
  IC50: 10 µM
[9]
  IC50: 30 µM
other
  melting point: 128 to 130 °C

## CC(=O)NN1C(=O)c2cc3ccc4c(c3c(-c3ccc5c(c3)OCO5)c2C1=O)OCO4 [Compound 25, N-(10-Benzo[1,3]dioxol-5-yl-7,9-dioxo-7,9-dihydro-1,3-dioxa-8-aza-dicyclopenta[a,g]naphthalen-8-yl)-acetamide]
[1]
  EC50: > 10 µM
[2]
  EC50: > 10 µM
[3]
  EC50: > 40 µM
[4]
  EC50: > 40 µM
[5]
  EC50: > 20 µM
[7]
  EC50: > 100 µM
[8]
  IC50: > 100 µM
[9]
  IC50: 93 µM
other
  melting point: 281 to 283 °C

## CCOC(=O)c1c(C(=O)OCC)c(-c2ccc3c(c2)OCO3)c2c3c(ccc2c1O)OCO3 [Compound 33, 9-Benzo[1,3]dioxol-5-yl-6-hydroxy-naphtho[1,2-d][1,3]dioxole-7,8-dicarboxylic acid diethyl ester]
[1]
  EC50: > 10 µM
[2]; [10]
  inhibition at 10 µM: 62%
[3]
  EC50: > 50 µM
[4]
  EC50: > 50 µM
[5]
  EC50: > 10 µM
[7]
  EC50: > 15 µM
[8]
  IC50: 15 µM
[9]
  IC50: 39 µM
other
  melting point: 192 to 194 °C

## O=C1c2cc3ccc4c(c3c(-c3ccc5c(c3)OCO5)c2C(=O)N1O)OCO4 [Compound 24, 10-Benzo[1,3]dioxol-5-yl-8-hydroxy-1,3-dioxa-8-aza-dicyclopenta[a,g]naphthalene-7,9-dione]
[1]
  EC50: > 5 µM
[2]
  EC50: > 10 µM
[3]
  EC50: > 30 µM
[4]
  EC50: > 30 µM
[5]
  EC50: > 5 µM
[6]
  EC50: 4.1 µM
[7]
  EC50: > 16 µM
[8]
  IC50: 16 µM
[9]
  IC50: 17 µM
other
  melting point: 255 °C (dec.)

## O=C1OCc2c1cc1c(Cl)cc3c(c1c2-c1ccc2c(c1)OCO2)OCO3 [Compound 37, 10-Benzo[1,3]dioxol-5-yl-5-chloro-9H-furo[3′,4′:6,7]naphtho[1,2-d][1,3]dioxol-7-one]
[1]
  EC50: > 10 µM
[2]
  EC50: > 10 µM
[3]
  EC50: 23 µM
[4]
  EC50: > 25 µM
[5]
  EC50: > 20 µM
[6]
  EC50: 8.8 µM
[7]
  EC50: > 50 µM
[8]
  IC50: 50 µM
[9]
  IC50: 27 µM
other
  melting point: 267 °C (dec.)

## O=C([O-])c1cc2c(Cl)cc3c(c2c(-c2ccc4c(c2)OCO4)c1CO)OCO3.[Na+] [Compound 44, 9-Benzo[1,3]dioxol-5-yl-5-chloro-8-hydroxymethyl-naphtho[1,2-d][1,3]dioxole-7-carboxylic acid monosodium salt]
[1]
  EC50: > 10 µM
[2]
  EC50: > 10 µM
[3]
  EC50: > 50 µM
[4]
  EC50: > 50 µM
[5]
  EC50: > 20 µM
[6]
  EC50: > 20 µM
[7]
  EC50: > 60 µM
[8]
  IC50: 60 µM
[9]
  IC50: > 100 µM
other
  melting point: 220 °C (dec.)

## O=c1[nH][nH]c(=O)c2c(-c3ccc4c(c3)OCO4)c3c4c(cc(I)c3cc12)OCO4 [Compound 43, 11-Benzo[1,3]dioxol-5-yl-5-iodo-8,9-dihydro-1,3-dioxa-8,9-diaza-cyclopenta[a]anthracene-7,10-dione]
[1]
  EC50: > 10 µM
[2]; [10]
  inhibition at 10 µM: 52%
[3]
  EC50: > 40 µM
[4]
  EC50: > 40 µM
[5]
  EC50: > 20 µM
[7]
  EC50: 2 µM
[8]
  IC50: 35 µM
[9]
  IC50: 40 µM
other
  melting point: 300 °C (dec.)

## COC(=O)c1c(C(=O)O)cc2ccc3c(c2c1-c1ccc2c(c1)OCO2)OCO3 [Compound 31, 9-Benzo[1,3]dioxol-5-yl-naphtho[1,2-d][1,3]dioxole-7,8-dicarboxylic acid 8-methyl ester]
[1]
  EC50: > 20 µM
[2]
  EC50: > 10 µM
[3]
  EC50: > 50 µM
[4]
  EC50: > 50 µM
[5]
  EC50: > 20 µM
[7]
  EC50: > 90 µM
[8]
  IC50: 90 µM
[9]
  IC50: 74 µM
other
  melting point: 273 to 275 °C

## COC(=O)c1cc2ccc3c(c2c(-c2ccc4c(c2)OCO4)c1C(=O)OC)OCO3 [Compound 30, 9-Benzo[1,3]dioxol-5-yl-naphtho[1,2-d][1,3]dioxole-7,8-dicarboxylic acid dimethyl ester]
[1]
  EC50: > 20 µM
[2]; [10]
  inhibition at 10 µM: 93%
[3]
  EC50: > 50 µM
[4]
  EC50: > 50 µM
[5]
  EC50: > 20 µM
[7]
  EC50: > 28 µM
[8]
  IC50: 28 µM
[9]
  IC50: 50 µM
other
  melting point: 157 to 159 °C

## O=C([O-])c1cc2c(I)cc3c(c2c(-c2ccc4c(c2)OCO4)c1CO)OCO3.[Na+] [Compound 46, 9-Benzo[1,3]dioxol-5-yl-8-hydroxymethyl-5-iodo-naphtho[1,2-d][1,3]dioxole-7-carboxylic acid monosodium salt]
[1]
  EC50: > 18 µM
[2]; [10]
  inhibition at 10 µM: 36%
[3]
  EC50: > 50 µM
[4]
  EC50: > 50 µM
[5]
  EC50: > 20 µM
[6]
  EC50: > 20 µM
[7]
  EC50: > 80 µM
[8]
  IC50: 80 µM
[9]
  IC50: > 100 µM
other
  melting point: 212 °C (dec.)

## NC(=O)c1cc2ccc3c(c2c(-c2ccc4c(c2)OCO4)c1C(=O)O)OCO3 [Compound 12, 9-Benzo[1,3]dioxol-5-yl-7-carbamoyl-naphtho[1,2-d][1,3]dioxole-8-carboxylic acid]
[1]
  EC50: 0.8 µM
[2]; at 3 μM, read-out: HCV percent of inhibition
  inhibition at 3 µM: 58%
[3]
  EC50: 0.15 µM
[3]; ratio of EC50 values
  times more potent than the reference drug acylclovir against HSV-1: about 140 times
[4]
  EC50: < 0.1 µM
[4]; ratio of EC50 values
  times more potent than the reference drug acylclovir against HSV-2: ~210 times
[5]
  EC50: 9 µM
[6]
  EC50: 0.45 µM
[7]
  EC50: > 5 µM
[8]
  IC50: 5 µM
[9]
  IC50: 8.4 µM

## O=C(O)c1cc2ccc3c(c2c(-c2ccc4c(c2)OCO4)c1COCc1ccccc1)OCO3 [Compound 5, 9-Benzo[1,3]dioxol-5-yl-8-benzyloxymethyl-naphtho[1,2-d][1,3]dioxole-7-carboxylic acid]
[1]
  EC50: > 10 µM
[2]
  EC50: > 10 µM
[3]
  EC50: > 25 µM
[4]
  EC50: > 25 µM
[5]
  EC50: > 20 µM
[7]
  EC50: > 48 µM
[8]
  IC50: 48 µM
[9]
  IC50: > 50 µM
other
  melting point: 219 to 221 °C
